# Data: US4175125A, “Method for treating methicillin resistant staphylococcus aureus” (Eli Lilly and Company, priority 1978, dated 1979)
# Counter-ions that a name gives are not always drawn. Like-named read-outs stand apart in the source and are kept apart here.
# Tested on: methicillin-resistant Staphylococcus aureus
# Test: Gradient plate test (MIC) against methicillin-resistant Staphylococcus aureus
# Format: cell-based
# Settings: for MIC: Staphylococcus aureus
# Experimental: The method used is essentially that described by Bryson and Szybalski in 1952 (Science 116:45-46). The inoculum treatment method used for penicillin resistant Staphylococci was reported by Godzeski et al in Antimicrobial Agents and Chemotherapy, May, 1969, pp. 547-554.
# A standard Falcon square plastic petri dish is used. A layer of agar (10 ml.) is poured into one of the square dishes, the dish tipped 5 mm. off the horizontal, and the agar layer allowed to harden in this position. This bottom layer of agar contains the antibiotic, the serum, and/or other material to be tested. The medium is Difco Penassay Agar containing 2 percent agar. We routinely used 4 ml. of human or horse serum for "serum-inactivation" testing. […] Therefore, serum is routinely added only to the bottom layer.
# After the bottom, slanted layer of agar medium has hardened, the plate is placed flat and another 10 ml. of medium added and allowed to harden.
# The inoculum of resistant Staphylococci, as described, is prepared by diluting the water suspension 1/50 in 0.25 percent agar in sterile water or saline. For Gram negative organisms, an overnight broth culture is diluted 1/50 in the 0.25 percent agar-water. This dilution is thoroughly shaken to evenly suspend the bacteria. To streak the plate, we use a 1 ml. pipet containing an aliquot of the final […] agar dilution. After a little practice, a smooth even stroke of inoculum can be laid down very rapidly. The trick is in the smoothness of the streak--it must be accomplished uniformly and quickly.
# After 24 hours incubation at 35°-37° C. the plates are read by simply measuring the length of bacterial growth as a percentage of the entire streak distance which is then converted to the percent of antibiotic concentration in the plate.
# Average values of duplicate measurements are calculated and the M.I.C.'s reported are average of 2 streaks on the plate and from 2 to 3 duplicate plates. Eight streaks can be easily placed on each plate. If sharp end points are not obtained, the middle concentration between the beginning of inhibition of the streak to the end of growth is measured. The concentration of the antibiotic under examination is varied from plate to plate in a series as follows: […]
# This method of screening penicillins and cephalosporins is quite satisfactory. Control plates containing penicillin and staphcillin or prostaphlin, or other control antibiotic, are used daily for the resistant staphylococcal activity screen. The gradient plate method has shown differences between antibiotics that were not apparent by any other methods of screening. […] We believe that the gradient plate screen is more sensitive to small differences between related antibiotics than other methods and pictures of the plates can provide a permanent record. The method also lends itself readily to modification of specific purposes--e.g., cross gradients.
# The compounds listed below are examples of compounds useful in the method of this invention. After the compound name there is given in parentheses, where tested, the minimum inhibitory concentrations (MIC) in micrograms per milliliter (μg/ml) for the compound in the above described gradient plate procedure test against methicillin-resistant Staphylococcus aureus, (in the absence of blood serum/in the presence of 20 percent blood serum).
# and pharmaceutically acceptable salts thereof. The abbreviation "s.z." means skip zones.
# [1] = in the absence of blood serum, read-out: minimum inhibitory concentration (MIC)
# [2] = in the presence of 20 percent blood serum, read-out: minimum inhibitory concentration (MIC)
# [3] = in the presence of 20 percent blood serum
SMILES,MIC [1] [µg/mL],MIC [2] [µg/mL],"MIC (read-out: minimum inhibitory concentration (MIC), in the absence of blood serum) [µg/mL]","MIC (read-out: minimum inhibitory concentration (MIC), in the presence of 20 percent blood serum) [µg/mL]",minimum inhibitory concentration (MIC) [3]
"CC(=O)OCC1=C(C(=O)O)N2C(=O)C(NC(=O)CSc3cccc(Cl)c3)C2SC1 (centres unmarked) [7-m-Chlorophenylthioacetamidocephalosporanic acid, potassium salt]",2,5.2,,,
"Cc1nnc(SCC2=C(C(=O)O)N3C(=O)C(NC(=O)CSc4cc(F)c(Cl)cc4Cl)C3SC2)s1 (centres unmarked) [3-(5'-methyl-1',3',4'-thiadiazol-2'-ylthiomethyl)-7-[2'-(2"",4""-dichloro-5""- fluorophenylthio)acetamido]-3-cephem-4-carboxylic acid, sodium salt]",2.3,> 20,,,
"Cc1nnc(SCC2=C(C(=O)O)N3C(=O)C(NC(=O)CSc4cc(Cl)ccc4Cl)C3SC2)s1 (centres unmarked) [3-(5'-methyl-1',3',4'-thiadiazol-2'-ylthiomethyl)-7-[2'-(2"",5""-dichlorophenylthio)acetamido]-3-cephem-4-carboxylic acid, sodium salt]",1.8,> 1,,,
"Cc1nnc(SCC2=C(C(=O)O)N3C(=O)C(NC(=O)CSc4ccc(Cl)c(Cl)c4)C3SC2)s1 (centres unmarked) [3-(5'-methyl-1',3',4'-thiadiazol-2'-ylthiomethyl)-7-[2'-(3"",4""-dichlorophenylthio)acetamido]-3-cephem-4-carboxylic acid, dicyclohexylamine salt]",1.2,> 20,,,
"Cc1nnc(SCC2=C(C(=O)O)N3C(=O)C(NC(=O)CSc4cc(Cl)cc(Cl)c4)C3SC2)s1 (centres unmarked) [3-(5'-methyl-1',3',4'-thiadiazol-2'-ylthiomethyl)-7-[2'-(3"",5""-dichlorophenylthio)acetamido]-3-cephem-4-carboxylic acid, sodium salt]",4.5,> 20,,,
"O=C(CSc1cc(Cl)ccc1Cl)NC1C(=O)N2C(C(=O)O)=C(CSc3nnc(-c4ccccc4)o3)CSC12 (centres unmarked) [3-[5'-phenyl-1',3',4'-oxadiazol-2'-ylthiomethyl]-7-[2'-(2""-5""-dichlorophenylthio)acetamido]-3-cephem-4-carboxylic acid, dicyclohexylamine salt]",0.8,> 1,,,
"O=C(CSc1cc(Cl)ccc1Cl)NC1C(=O)N2C(C(=O)O)=C(CSc3nnc(-c4ccc([N+](=O)[O-])cc4)o3)CSC12 (centres unmarked) [3-[5'-(p-nitrophenyl)-1',3',4'-oxadiazol-2'-ylthiomethyl]-7-[2'-(2"",5""-dichlorophenylthio)actamido]-3-cephem-4-carboxylic acid, sodium salt]",3.9,> 20,,,
"NC(=O)OCC1=C(C(=O)O)N2C(=O)C(NC(=O)CSc3cc(Cl)ccc3Cl)[C@H]2SC1 (some centres unmarked) [3-carbamyloxymethyl-7-[2'-(2"",5""-dichlorophenylthio)acetamido]-3-cephem-4-carboxylic acid]",4.1,1.7,,,
"CC(=O)OCC1=C(C(=O)O)N2C(=O)C(NC(=O)CSc3cc(F)c(Cl)cc3Cl)C2SC1 (centres unmarked) [Example 4, 7(2,4-Dichloro-5-fluoro-phenylthioacetamido)cephalosporanic acid]",3,> 20,,,
"CSCC1=C(C(=O)[O-])N2C(=O)C(NC(=O)CSc3cc(Cl)ccc3Cl)[C@H]2SC1.[Na+] (some centres unmarked) [3-methylthiomethyl-7-[2'-(2"",5""-dichlorophenylthio)acetamido]-3-cephem-4-carboxylic acid, sodium salt]",,,12,14.4,
"CC(=O)OCC1=C(C(=O)O)N2C(=O)C(NC(=O)CSc3cccc(F)c3)C2SC1 (centres unmarked) [7-[2'-(3""-fluorophenylthio)acetamido]cephalosporanic acid]",10.6,9.3,,,
"Cn1nnnc1SCC1=C(C(=O)O)N2C(=O)C(NC(=O)CSc3cc(Cl)ccc3Cl)C2SC1 (centres unmarked) [3-(1'-methyl-1'H-tetrazol-5'-ylthiomethyl)-7-[2'-(2"",5""-dichlorophenylthio)acetamido]-3-cephem-4-carboxylic acid, dicyclohexylamine salt]",2.3,,,,skip zones
"COc1ccc(-c2nnc(SCC3=C(C(=O)O)N4C(=O)C(NC(=O)CSc5cc(Cl)ccc5Cl)C4SC3)o2)cc1 (centres unmarked) [3-[5'-(p-methoxyphenyl)-1',3',4'-oxadiazol-5'-ylthiomethyl]-7-[2'-(2"",5""-dichlorophenylthio)acetamido]-3-cephem-4-carboxylic acid, sodium salt]",4.4,,,,
"O=C(CSc1cc(Cl)ccc1Cl)NC1C(=O)N2C(C(=O)O)=C(CSc3nn[nH]n3)CSC12 (centres unmarked) [3-(1'H-tetrazol-5'-ylthiomethyl)-7-[2'-(2"",5""-dichlorophenylthio)acetamido]-3-cephem-4-carboxylic acid]",6.8,> 1,,,
"Cn1nnnc1SCC1=C(C(=O)O)N2C(=O)C(NC(=O)CSc3cc(F)c(Cl)cc3Cl)C2SC1 (centres unmarked) [3-(1'-methyl-1'H-tetrazol-5'-ylthiomethyl)-7-[2'-[2"",4""-dichloro-5""-fluorophenylthio)acetamido]-3-cephem-4-carboxylic acid, dicyclohexylamine salt]",1.9,> 20,,,
"Cn1nnnc1SCC1=C(C(=O)O)N2C(=O)C(NC(=O)CSc3cc(Cl)cc(Cl)c3)C2SC1 (centres unmarked) [3-[1'-methyl-1'H-tetrazol-5'-ylthiomethyl]-7-[2'-(3"",5""-dichlorophenylthio)acetamido]-3-cephem-4-carboxylic acid, dicyclohexylamine salt]",2.2,,,,skip zones
"CNC(=O)OCC1=C(C(=O)O)N2C(=O)C(NC(=O)CSc3cc(Cl)ccc3Cl)C2SC1 (centres unmarked) [Example 7, 7(2,5-dichlorophenylmercaptoacetamido)-3-(N-methylcarbamoyloxymethyl)-Δ^3-cephalosphoranic acid]",5.5,18.2,,,
"Cn1nnnc1SCC1=C(C(=O)O)N2C(=O)C(NC(=O)CSc3ccc(Cl)c(Cl)c3)[C@H]2SC1 (some centres unmarked) [Example 5, 7-[2-(3,4-dichlorophenylthio)acetamido]-3-(1-methyltetrazol-5-yl-thiomethyl)-3-cephem-4-carboxylic acid]",2.4,> 20,,,
